Results taken from PubChem BioAssay (NCI).
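Values below derive from 48-hour exposures of cells grown in 96-well plates, with endpoints linearly interpolated between the two concentrations bracketing the appropriate inhibition level. GI50 is the concentration that inhibits growth by half. TGI is the concentration that stops growth completely.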

Legend:
Experiment in all cases: growth of human tumour cells (NCI), 48 h
LOX IMVI melanoma = system: LOX IMVI melanoma
SF-268 CNS = system: SF-268 CNS
SF-539 CNS = system: SF-539 CNS
MDA-MB-231 breast = system: MDA-MB-231 breast
U251 CNS = system: U251 CNS
T-47D breast = system: T-47D breast
SK-MEL-5 melanoma = system: SK-MEL-5 melanoma
HOP-92 NSCLC = system: HOP-92 NSCLC
SW-620 colon = system: SW-620 colon
OVCAR-4 ovarian = system: OVCAR-4 ovarian
EKVX NSCLC = system: EKVX NSCLC
MOLT-4 leukemia = system: MOLT-4 leukemia
OVCAR-8 ovarian = system: OVCAR-8 ovarian
BT-549 breast = system: BT-549 breast
K-562 leukemia = system: K-562 leukemia
CAKI-1 renal = system: CAKI-1 renal
SN12C renal = system: SN12C renal
HS 578T breast = system: HS 578T breast
NCI-H460 lung = system: NCI-H460 lung
HT29 colon = system: HT29 colon
SK-MEL-28 melanoma = system: SK-MEL-28 melanoma
HCT-15 colon = system: HCT-15 colon
CCRF-CEM leukemia = system: CCRF-CEM leukemia
NCI/ADR-RES ovarian = system: NCI/ADR-RES ovarian
RXF 393 renal = system: RXF 393 renal
M14 melanoma = system: M14 melanoma
KM12 colon = system: KM12 colon
UO-31 renal = system: UO-31 renal
COLO 205 colon = system: COLO 205 colon
SF-295 CNS = system: SF-295 CNS
UACC-62 melanoma = system: UACC-62 melanoma
786-0 renal = system: 786-0 renal
HCT-116 colon = system: HCT-116 colon
ACHN renal = system: ACHN renal
SK-OV-3 ovarian = system: SK-OV-3 ovarian
A498 renal = system: A498 renal
SNB-75 CNS = system: SNB-75 CNS
NCI-H226 lung = system: NCI-H226 lung
MDA-MB-435 = system: MDA-MB-435
IGROV1 ovarian = system: IGROV1 ovarian
TK-10 renal = system: TK-10 renal
SR leukemia = system: SR leukemia
HCC-2998 colon = system: HCC-2998 colon
UACC-257 melanoma = system: UACC-257 melanoma
NCI-H522 lung = system: NCI-H522 lung
SK-MEL-2 melanoma = system: SK-MEL-2 melanoma
RPMI-8226 leukemia = system: RPMI-8226 leukemia
OVCAR-5 ovarian = system: OVCAR-5 ovarian
DU-145 prostate = system: DU-145 prostate
HL-60(TB) leukemia = system: HL-60(TB) leukemia
HOP-62 NSCLC = system: HOP-62 NSCLC
OVCAR-3 ovarian = system: OVCAR-3 ovarian
MALME-3M melanoma = system: MALME-3M melanoma
SNB-19 CNS = system: SNB-19 CNS
PC-3 prostate = system: PC-3 prostate
MCF7 breast = system: MCF7 breast
NCI-H23 lung = system: NCI-H23 lung
A549 NSCLC = system: A549 NSCLC

With Cc1cn(-c2cc(NC(=O)c3cncc(C#Cc4cnc5ccc(O[C@@H]6CCOC6)nn45)c3)cc(C(F)(F)F)c2)cn1 the GI50 (LOX IMVI melanoma) was 85.6 nM, the TGI (LOX IMVI melanoma) was 535 nM and the GI50 (SF-268 CNS) was 191 nM. It also gave a TGI (SF-268 CNS) of 1030 nM, a GI50 (SF-539 CNS) of 39.8 nM and a TGI (SF-539 CNS) of 231 nM. For the same compound, the GI50 (MDA-MB-231 breast) was 74 nM, the TGI (MDA-MB-231 breast) was 403 nM and the GI50 (U251 CNS) was 246 nM. For the same compound, the TGI (U251 CNS) was 1020 nM, the GI50 (T-47D breast) was 442 nM and the TGI (T-47D breast) was 4260 nM. For the same compound, the GI50 (SK-MEL-5 melanoma) was 615 nM, the TGI (SK-MEL-5 melanoma) was 1710 nM and the GI50 (HOP-92 NSCLC) was 22.8 nM. It also gave a TGI (HOP-92 NSCLC) of 96.3 nM, a GI50 (SW-620 colon) of 157 nM and a TGI (SW-620 colon) of 557 nM. It also gave a GI50 (OVCAR-4 ovarian) of 155 nM, a TGI (OVCAR-4 ovarian) of 1000 nM and a GI50 (EKVX NSCLC) of 257 nM. For the same compound, the TGI (EKVX NSCLC) was 1270 nM, the GI50 (MOLT-4 leukemia) was 64.2 nM and the TGI (MOLT-4 leukemia) was 678 nM. The GI50 (OVCAR-8 ovarian) was 257 nM, the TGI (OVCAR-8 ovarian) was 1140 nM and the GI50 (BT-549 breast) was 625 nM. It also gave a TGI (BT-549 breast) of 1730 nM, a TGI (K-562 leukemia) of 3250 nM and a GI50 (CAKI-1 renal) of 495 nM. It also gave a TGI (CAKI-1 renal) of 1510 nM, a GI50 (SN12C renal) of 85.6 nM and a TGI (SN12C renal) of 601 nM. The GI50 (HS 578T breast) was 124 nM, the TGI (HS 578T breast) was 559 nM and the GI50 (NCI-H460 lung) was 144 nM. The TGI (NCI-H460 lung) was 699 nM, the GI50 (HT29 colon) was 188 nM and the TGI (HT29 colon) was 947 nM. The GI50 (SK-MEL-28 melanoma) was 312 nM, the TGI (SK-MEL-28 melanoma) was 1090 nM and the GI50 (HCT-15 colon) was 687 nM. The TGI (HCT-15 colon) was 2370 nM, the GI50 (CCRF-CEM leukemia) was 48.6 nM and the GI50 (NCI/ADR-RES ovarian) was 6460 nM. It also gave a TGI (NCI/ADR-RES ovarian) of 23100 nM, a GI50 (RXF 393 renal) of 215 nM and a TGI (RXF 393 renal) of 535 nM. For the same compound, the GI50 (M14 melanoma) was 138 nM, the TGI (M14 melanoma) was 353 nM and the TGI (KM12 colon) was 1790 nM. The GI50 (UO-31 renal) was 1450 nM, the TGI (UO-31 renal) was 3550 nM and the GI50 (COLO 205 colon) was 75.7 nM. For the same compound, the TGI (COLO 205 colon) was 213 nM, the GI50 (SF-295 CNS) was 355 nM and the TGI (SF-295 CNS) was 2410 nM. The GI50 (UACC-62 melanoma) was 204 nM, the TGI (UACC-62 melanoma) was 949 nM and the GI50 (786-0 renal) was 286 nM. The TGI (786-0 renal) was 936 nM, the GI50 (HCT-116 colon) was 79.7 nM and the TGI (HCT-116 colon) was 616 nM. For the same compound, the GI50 (ACHN renal) was 689 nM, the TGI (ACHN renal) was 2770 nM and the GI50 (SK-OV-3 ovarian) was 392 nM. For the same compound, the TGI (SK-OV-3 ovarian) was 2230 nM, the GI50 (A498 renal) was 504 nM and the TGI (A498 renal) was 1090 nM. For the same compound, the GI50 (SNB-75 CNS) was less than 43.6 nM, the TGI (SNB-75 CNS) was 226 nM and the GI50 (NCI-H226 lung) was 56.6 nM. The TGI (NCI-H226 lung) was 454 nM, the GI50 (MDA-MB-435) was 144 nM and the TGI (MDA-MB-435) was 714 nM. For the same compound, the GI50 (IGROV1 ovarian) was 103 nM, the TGI (IGROV1 ovarian) was 534 nM and the GI50 (TK-10 renal) was 362 nM. For the same compound, the TGI (TK-10 renal) was 1560 nM, the GI50 (SR leukemia) was 52.7 nM and the TGI (SR leukemia) was 936 nM. The GI50 (HCC-2998 colon) was 320 nM, the TGI (HCC-2998 colon) was 1500 nM and the GI50 (UACC-257 melanoma) was 467 nM. It also gave a TGI (UACC-257 melanoma) of 2750 nM, a GI50 (NCI-H522 lung) of 111 nM and a TGI (NCI-H522 lung) of 330 nM. It also gave a GI50 (SK-MEL-2 melanoma) of 210 nM, a TGI (SK-MEL-2 melanoma) of 512 nM and a GI50 (RPMI-8226 leukemia) of 397 nM. The GI50 (OVCAR-5 ovarian) was 268 nM, the TGI (OVCAR-5 ovarian) was 1670 nM and the GI50 (DU-145 prostate) was 222 nM. The TGI (DU-145 prostate) was 1580 nM, the GI50 (HL-60(TB) leukemia) was 181 nM and the TGI (HL-60(TB) leukemia) was 613 nM. For the same compound, the GI50 (HOP-62 NSCLC) was 183 nM, the TGI (HOP-62 NSCLC) was 883 nM and the GI50 (OVCAR-3 ovarian) was 217 nM. For the same compound, the TGI (OVCAR-3 ovarian) was 849 nM, the GI50 (MALME-3M melanoma) was 164 nM and the TGI (MALME-3M melanoma) was 693 nM. The GI50 (SNB-19 CNS) was 261 nM, the TGI (SNB-19 CNS) was 1750 nM and the GI50 (PC-3 prostate) was 280 nM. The TGI (PC-3 prostate) was 4210 nM, the GI50 (MCF7 breast) was 72.9 nM and the TGI (MCF7 breast) was 717 nM. For the same compound, the GI50 (NCI-H23 lung) was 190 nM, the TGI (NCI-H23 lung) was 784 nM and the GI50 (A549 NSCLC) was 206 nM. The TGI (A549 NSCLC) was 958 nM.
